{"source": "patent US20260217701A1", "about": "“SELECTIVE BET INHIBITORS AND USES THEREOF” (Tay Therapeutics Limited, priority 2022, published 2026)", "system": "imiquimod-induced psoriasis", "experiment": "Imiquimod-induced psoriasis model", "type": "in vivo, mice", "conditions": "for Body Weight D1: Day 1 (before treatment start on Day 8); for Body Weight D1 / Body Weight D3 / Body Weight D5 / Body Weight D7 / Body Weight D8 / Body Weight D9 / Body Weight D10 / Body Weight D11 / Body Weight D12 / Body Weight D13 / Body Weight D14 / Body Weight D15 / MBWC D1-D8 / MBWC D8-D15 / PASI Scores: individual animals; for Body Weight D3: Day 3 (before treatment start on Day 8); for Body Weight D5: Day 5 (before treatment start on Day 8); for Body Weight D7: Day 7 (before treatment start on Day 8); for Body Weight D8: Day 8 (first day of treatment); for Body Weight D9: Day 9; for Body Weight D10: Day 10; for Body Weight D11: Day 11; for Body Weight D12: Day 12; for Body Weight D13: Day 13; for Body Weight D14: Day 14; for Body Weight D15: Day 15; for MBWC D1-D8: body weight change Day 1 to Day 8 (before treatment); for MBWC D8-D15: body weight change Day 8 to Day 15 (treatment period); for PASI Scores: IMI + Compound A 1 mg/kg", "outline": "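Mice given topical imiquimod (5% cream) daily on depilated backs Days 1–14; Compound A in 5% DMSO/40% PEG-400/55% saline from Day 8, clobetasol topical as reference. Daily PASI (erythema, induration, peeling, each 0–4, summed) Days 8–15; spleen weight, open-field behaviour, serum IL-1B, IL-6, IL-17, TNF-α, IL-22, IL-23 at Day 15.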", "key": {"[1]": {"conditions": "IMI + 1 mg/kg, 1 mg/kg, in g (unit assumed)"}, "[2]": {"conditions": "IMI + 3 mg/kg, 3 mg/kg, in g (unit assumed)"}, "[3]": {"conditions": "IMI + 10 mg/kg, 10 mg/kg, in g (unit assumed)"}}, "note": "“And” between values parts separate entries of the source, which are not always exact repeats. Identical values can stand only once.", "data": [{"smiles": "Cn1cc(-c2ccccc2)c(-c2cn(C)c(=O)c3[nH]c(-c4cnn(C(F)(F)F)c4)cc23)cc1=O", "note": "[Compound A, 6-methyl-4-(1-methyl-2-oxo-5-phenyl-1,2-dihydropyridin-4-yl)-2-(1-(trifluoromethyl)-1H-pyrazol-4-yl)-1,6-dihydro-7H-pyrrolo[2,3-c]pyridin-7-one]", "values": [{"measurement": "PASI score improvement by day 15", "setting": "1 mg/kg", "value": "> 80", "unit": "%"}, {"measurement": "PASI score improvement by day 15", "setting": "3 mg/kg", "value": "> 90", "unit": "%"}, {"measurement": "symptoms by day 15 (representative images)", "setting": "3 mg/kg", "value": "nearly entirely symptom free"}, {"measurement": "PASI-90 (change in PASI score ≥90%) by day 7 of treatment", "setting": "3 mg/kg IP once daily", "value": "surpassed PASI-90"}, {"measurement": "PASI score improvement by day 15", "setting": "10 mg/kg", "value": "> 90", "unit": "%"}, {"measurement": "efficacy on the treatment of psoriasis", "setting": "3 tested doses (1, 3, 10 mg/kg)", "value": "very good efficacy"}, {"measurement": "licking scoring", "setting": "D15", "value": "effective in reducing licking scoring"}, {"measurement": "rearing behavior", "setting": "D15, open field", "value": "restored rearing behavior"}, {"measurement": "Body Weight D1", "setting": "[1]", "value": "16.93 and 17.80 and 16.08 and 16.97 and 17.74 and 17.12 and 18.36 and 17.34"}, {"measurement": "Body Weight D3", "setting": "[1]", "value": "15.40 and 16.02 and 15.09 and 15.92 and 16.29 and 16.59 and 16.98 and 15.19"}, {"measurement": "Body Weight D5", "setting": "[1]", "value": "15.20 and 16.76 and 15.65 and 16.45 and 16.71 and 17.23 and 17.40 and 15.42"}, {"measurement": "Body Weight D7", "setting": "[1]", "value": "15.18 and 17.36 and 15.85 and 16.10 and 16.71 and 17.27 and 17.41 and 15.38"}, {"measurement": "Body Weight D8", "setting": "[1]", "value": "14.60 and 16.99 and 15.82 and 16.44 and 16.60 and 17.49 and 16.66 and 14.75"}, {"measurement": "Body Weight D9", "setting": "[1]", "value": "14.63 and 17.16 and 15.82 and 16.15 and 16.59 and 17.04 and 16.41 and 15.55"}, {"measurement": "Body Weight D10", "setting": "[1]", "value": "14.70 and 16.93 and 15.61 and 15.89 and 16.21 and 16.73 and 16.12 and 15.11"}, {"measurement": "Body Weight D11", "setting": "[1]", "value": "14.84 and 17.22 and 15.81 and 15.74 and 16.25 and 16.90 and 16.89 and 15.58"}, {"measurement": "Body Weight D12", "setting": "IMI + 1 mg/kg, 1 mg/kg", "value": "14.87 and 16.99 (2×) and 15.46 and 15.54 and 17.30 and 17.06 and 15.66"}, {"measurement": "Body Weight D13", "setting": "[1]", "value": "15.05 and 17.40 and 16.20 and 15.94 and 16.75 and 17.05 and 16.69 and 15.46"}, {"measurement": "Body Weight D14", "setting": "[1]", "value": "15.56 and 17.50 and 16.49 and 16.50 and 17.20 and 17.24 and 16.86 and 16.35"}, {"measurement": "Body Weight D15", "setting": "[1]", "value": "15.74 and 17.76 and 16.69 and 17.05 and 17.07 and 17.34 and 17.23 and 16.41"}, {"measurement": "MBWC D1-D8", "setting": "IMI + 1 mg/kg, 1 mg/kg", "value": "−2.33 and −0.81 and −0.26 and −0.53 and −1.14 and 0.37 and −1.70 and −2.59"}, {"measurement": "MBWC D8-D15", "setting": "IMI + 1 mg/kg, 1 mg/kg", "value": "1.14 and 0.77 and 0.87 and 0.61 and 0.47 and −0.15 and 0.57 and 1.66"}, {"measurement": "Body Weight D1", "setting": "[2]", "value": "17.31 and 16.98 and 19.05 and 16.34 and 18.16 and 17.71 and 15.90 and 17.04"}, {"measurement": "Body Weight D3", "setting": "[2]", "value": "15.94 and 14.69 and 16.63 and 15.29 and 15.93 and 15.05 and 14.65 and 15.53"}, {"measurement": "Body Weight D5", "setting": "[2]", "value": "16.84 and 15.15 and 16.74 and 15.65 and 17.11 and 16.06 and 16.09 and 15.35"}, {"measurement": "Body Weight D7", "setting": "[2]", "value": "16.64 and 14.71 and 16.54 and 14.84 and 17.16 and 15.73 and 15.75 and 15.45"}, {"measurement": "Body Weight D8", "setting": "IMI + 3 mg/kg, 3 mg/kg", "value": "16.59 and 14.84 and 16.76 and 15.51 (2×) and 15.95 and 15.14 and 15.67"}, {"measurement": "Body Weight D9", "setting": "[2]", "value": "16.53 and 14.49 and 16.98 and 15.40 and 16.26 and 15.22 and 15.49 and 14.89"}, {"measurement": "Body Weight D10", "setting": "[2]", "value": "16.64 and 14.53 and 17.40 and 15.71 and 16.02 and 15.31 and 14.80 and 14.76"}, {"measurement": "Body Weight D11", "setting": "[2]", "value": "17.05 and 14.95 and 17.25 and 15.60 and 16.07 and 15.67 and 15.43 and 15.33"}, {"measurement": "Body Weight D12", "setting": "[2]", "value": "17.56 and 15.38 and 17.88 and 15.18 and 16.82 and 16.07 and 15.80 and 15.88"}, {"measurement": "Body Weight D13", "setting": "[2]", "value": "17.68 and 16.03 and 18.03 and 15.39 and 16.24 and 16.09 and 15.63 and 15.61"}, {"measurement": "Body Weight D14", "setting": "[2]", "value": "17.80 and 16.01 and 17.97 and 15.32 and 16.91 and 16.84 and 15.90 and 15.97"}, {"measurement": "Body Weight D15", "setting": "IMI + 3 mg/kg, 3 mg/kg", "value": "18.44 (2×) and 16.47 (2×) and 15.82 and 16.95 and 16.91 and 16.13"}, {"measurement": "MBWC D1-D8", "setting": "IMI + 3 mg/kg, 3 mg/kg", "value": "−0.72 and −2.14 and −2.29 and −0.83 and −2.21 and −2.57 and −0.39 and −1.37"}, {"measurement": "MBWC D8-D15", "setting": "IMI + 3 mg/kg, 3 mg/kg", "value": "1.85 and 1.63 and 1.68 and 0.31 and 1.00 and 1.77 and 0.62 and 0.80"}, {"measurement": "Body Weight D1", "setting": "[3]", "value": "17.49 and 17.30 and 19.10 and 19.20 and 19.68 and 17.68 and 16.28 and 17.45"}, {"measurement": "Body Weight D3", "setting": "[3]", "value": "15.01 and 14.91 and 17.43 and 18.70 and 15.42 and 17.04 and 13.99 and 14.57"}, {"measurement": "Body Weight D5", "setting": "IMI + 10 mg/kg, 10 mg/kg", "value": "15.12 (2×) and 14.82 and 17.32 and 19.02 and 15.82 and 16.99 and 15.18"}, {"measurement": "Body Weight D7", "setting": "[3]", "value": "16.33 and 15.77 and 17.25 and 18.62 and 16.18 and 17.36 and 15.18 and 14.93"}, {"measurement": "Body Weight D8", "setting": "[3]", "value": "16.07 and 15.40 and 17.12 and 18.84 and 15.35 and 16.21 and 14.88 and 14.68"}, {"measurement": "Body Weight D9", "setting": "[3]", "value": "15.69 and 15.96 and 16.63 and 19.27 and 15.91 and 16.41 and 14.96 and 14.71"}, {"measurement": "Body Weight D10", "setting": "[3]", "value": "15.53 and 15.84 and 16.68 and 18.91 and 16.27 and 16.73 and 15.10 and 14.49"}, {"measurement": "Body Weight D11", "setting": "IMI + 10 mg/kg, 10 mg/kg", "value": "15.74 and 15.58 (2×) and 16.84 and 19.15 and 16.81 and 17.05 and 15.32"}, {"measurement": "Body Weight D12", "setting": "[3]", "value": "15.83 and 15.88 and 17.03 and 19.25 and 17.13 and 17.19 and 16.27 and 15.58"}, {"measurement": "Body Weight D13", "setting": "[3]", "value": "17.35 and 16.03 and 17.55 and 19.51 and 16.98 and 17.10 and 16.02 and 15.65"}, {"measurement": "Body Weight D14", "setting": "[3]", "value": "16.58 and 16.42 and 17.59 and 19.36 and 17.68 and 17.84 and 16.59 and 15.62"}, {"measurement": "Body Weight D15", "setting": "[3]", "value": "16.60 and 16.43 and 18.35 and 19.39 and 17.81 and 18.26 and 16.77 and 15.96"}, {"measurement": "MBWC D1-D8", "setting": "IMI + 10 mg/kg, 10 mg/kg", "value": "−1.42 and −1.90 and −1.98 and −0.36 and −4.33 and −1.47 and −1.40 and −2.77"}, {"measurement": "MBWC D8-D15", "setting": "IMI + 10 mg/kg, 10 mg/kg", "value": "0.53 and 1.03 and 1.23 and 0.55 and 2.46 and 2.05 and 1.89 and 1.28"}, {"measurement": "PASI Scores", "setting": "D8 (day treatment started), 1 mg/kg", "value": "8 (4×) and 6 (2×) and 7 (2×)"}, {"measurement": "PASI Scores", "setting": "D9, 1 mg/kg", "value": "7 (3×) and 6 (3×) and 9 and 8"}, {"measurement": "PASI Scores", "setting": "D10, 1 mg/kg", "value": "7 and 6 (3×) and 5 (3×) and 8"}, {"measurement": "PASI Scores", "setting": "D11, 1 mg/kg", "value": "6 (3×) and 4 (2×) and 5 and 8 and 7"}]}]}
